Values joined by “and” are separate entries in the source; they are usually repeats but may differ in a detail not shown here. Equal entries are not always repeated.
What was measured:
[1] = system: epididymal mouse sperm; test: Ex vivo motility (CASA) of epididymal sperm from inhibitor-treated male mice; format: in vivo
Experimental: Sperm movements of 10 fields of at least 200 sperm were examined using computer-assisted sperm analysis (CASA) via Hamilton–Thorne digital image analyzer (IVOS II, Hamilton Thorne Research, Beverly, MA) with the following parameters: 30 frames, frame rate: 60 Hz, cell size: 30–170 μm^2. Ejaculated uterine mouse sperm were recorded without additional dilution. Sperm were considered motile when presenting STR ≥80% and VAP ≥50 μm/s and hyperactivated when presenting VCL ≥270 μm/s, LIN < 50%, and ALH ≥7 μm. Track´s color code: motile (green), progressive (turquoise), hyperactivated (purple), slow (pink), static (red), not counted due to late entry (yellow).

[2] = target: T1, purified recombinant human sAC protein (Homo sapiens, UniProt Q96PN6); test: In vitro adenylyl cyclase activity assay (two-column method);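 on cyclase activity (%): 100% equals DMSO vehicle-treated control activity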; format: biochemical; settings: for cyclase activity (%): Fig. 1c normalized replicates; for cyclase activity: Fig. 1c replicates
T1 construct: human sACt protein was incubated
T1 sequence (Q96PN6 1-469 limits assumed): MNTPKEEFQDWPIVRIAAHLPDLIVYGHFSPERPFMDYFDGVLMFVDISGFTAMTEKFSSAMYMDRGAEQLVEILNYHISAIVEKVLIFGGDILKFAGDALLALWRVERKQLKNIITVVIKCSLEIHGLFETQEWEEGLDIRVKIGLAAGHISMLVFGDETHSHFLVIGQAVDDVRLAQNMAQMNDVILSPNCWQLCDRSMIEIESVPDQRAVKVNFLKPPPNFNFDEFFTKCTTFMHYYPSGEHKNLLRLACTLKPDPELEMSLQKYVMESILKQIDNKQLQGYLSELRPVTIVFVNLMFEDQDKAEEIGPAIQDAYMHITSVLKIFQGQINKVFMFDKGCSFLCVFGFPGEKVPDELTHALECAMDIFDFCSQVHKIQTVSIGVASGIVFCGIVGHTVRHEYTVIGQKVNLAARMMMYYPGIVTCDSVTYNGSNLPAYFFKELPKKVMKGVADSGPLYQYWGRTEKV
Experimental: All in vitro adenylyl cyclase activity assays were performed via the “two-column” method measuring the conversion of [α-^32P] ATP into [^32P] cAMP[54], as previously described. Briefly, human sACt protein was incubated in buffer containing 50 mM Tris-HCl, pH 7.5, 4 mM MgCl2, 2 mM CaCl2, 1 mM ATP, 3 mM DTT, 40 mM NaHCO3 in the presence of the indicated concentrations of different sAC inhibitors or vehicle (1% DMSO).

[3] = system: epididymal mouse sperm; test: Tyrosine phosphorylation (pY) Western blot of sperm from injected mice; settings: for capacitation-induced pY pattern: 50 mg/kg i.p., 1 hour
Experimental: (§2) For capacitation, sperm were incubated for 90 min in TYH containing 3 mg/ml BSA and 25 mM NaHCO3 in a 37 °C incubator. To control for the consequences of dilution during isolation of epididymal mouse sperm for ex vivo assays, we assessed the ability of bicarbonate to induce a prototypical pattern of tyrosine phosphorylation (pY) which is a widely used molecular hallmark of capacitation[53]. […] For experiments studying sperm from injected mice, ‘swim out’ was performed in 200 μl TYH, which corresponded to a 1:10 dilution from epididymis (20 μg cauda in 200 μl buffer). Capacitation-induced changes were assessed by adding 50 µl of ‘swim out’ sperm to increasing volumes of capacitating TYH buffer.
Mouse sperm from vehicle- or inhibitor-injected mice were isolated 1 hour post injection from male mice injected (i.p.) with 150 µl of solution containing sAC inhibitor or vehicle. ‘Swim out’ sperm were diluted 1:1 to 1:100 in capacitating TYH media. As control, sperm from vehicle-injected mice were diluted 1:100 in non-capacitating and capacitating TYH buffer. The samples were incubated for 90 min, washed with 1 ml PBS and sedimented by centrifugation at 2000 × g for 3 min. The sedimented sperm were resuspended in 15 μl 2× Laemmli sample buffer, heated for 5 min at 95 °C, supplemented with 8 µl β-mercaptoethanol and heated again for 5 min at 95 °C. For Western blot analysis, proteins were transferred onto PVDF membranes (Thermo Scientific), probed with anti-phosphotyrosine (1:1000, clone 4G10, Merck Millipore) and anti-mouse IgG (1:10,000, Cell Signaling Technology) antibodies, and analyzed using a chemiluminescence detection system. Image lab (Bio-Rad) was used for densitometric analysis of western blots.

[4] = system: human sperm; test: Acrosome reaction assay, human sperm, progesterone-evoked; format: cell-based; settings: Fig. 2h replicates, 5 μM TDI-10229 or 10 nM TDI-11861
Experimental: (§1) Acrosome reaction was induced by incubating mouse sperm with 50 mouse solubilized zonae pellucidae for 15 min at 37 °C. Human sperm were incubated with 10 μM progesterone for 30 min at 37 °C. […] Samples were air-dried on microscope slides and fixed for 30 minutes in 100% ethanol at room temperature (RT). For acrosome staining, mouse and human sperm were incubated for 30 min in the dark with 5 μg/ml PNA-FITC or 5 μg/ml PSA-FITC, respectively, and counterstained with 2 μg/ml DAPI. After curing, slides were analyzed using a Zeiss LSM 880 Laser Scanning Confocal Microscope; images were captured with two photomultiplier and one Gallium Arsenide Phosphide detector using ZEN Imaging software. For each condition, at least 600 cells were analyzed using ImageJ 1.52.

[5] = system: epididymal mouse sperm; test: Ex vivo cAMP generation in epididymal sperm from inhibitor-treated male mice (oral or i.p.)
Experimental: as §2
Intracellular cAMP levels were quantified using the Direct cAMP ELISA kit (Enzo) as above.

[6] = system: mouse sperm; test: Acrosome reaction assay, mouse sperm, zona pellucidae-evoked; format: cell-based; settings: Fig. 2g replicates, 5 μM TDI-10229 or 10 nM TDI-11861
Experimental: Zonae pellucidae were isolated from female mice superovulated by intraperitoneal injection of 10 I.U. […] 3 days before the experiment. 14 h before oocyte isolation, mice were injected with 10 I.U. pregnant mare’s serum gonadotropin. Mice were sacrificed by cervical dislocation and oviducts were dissected. Cumulus-enclosed oocytes were separated from the oviducts and placed into TYH buffer containing 300 μg/ml hyaluronidase. After 15 min, cumulus-free oocytes were transferred into fresh buffer and washed twice. Zonae pellucidae and oocytes were separated by shear forces generated by expulsion from […] pasteur pipettes. Zona pellucidae were counted, transferred into fresh buffer, and heat-solubilized by incubation for 10 min at 65 °C.
as §1

[7] = concentration (uM) -0.52288 [sic]
[8] = concentration (uM) -1.95424 [sic]
[9] = concentration (uM) -2.43136 [sic]
[10] = concentration (uM) -2.90848 [sic]
[11] = concentration (uM) -3.38561 [sic]
[12] = concentration (uM) printed 0.477121
[13] = concentration (uM) printed -1.47712

Cc1c(Cc2ccccc2)c(-c2cc(Cl)nc(N)n2)nn1C [TDI-10229, reference compound]
motility of epididymal sperm diluted ex vivo ([1]; 50 mg/kg oral): motile and indistinguishable from sperm from vehicle-treated mice
motility (%) ([1]; Fig. 3b replicates, 50 mg/kg oral gavage, 1 hour, diluted 1:100 in inhibitor-free non-capacitating media, CASA, 50 mg/kg): 34.7% and 36.8% and 35.1% and 36.4% and 29.7% and 32.4% and 30.6% and 26% and 32% and 33.4% and 29.4%
motility (%) ([1]; Fig. 3d, individual replicates): 19.9% and 28.3% and 25% and 29.5% and 30.2% and 35.4% and 40.7% and 41.4% and 42.3%
cyclase activity (%) ([2]; concentration (uM) 0): 9.237% and 13.938% and 16.2416% and 14.0981% and 17.1651% and 16.2955%
cyclase activity (%) [2, 7]: 31.1405% and 32.9975% and 35.8708% and 34.2006% and 36.7402% and 35.3317%
cyclase activity (%) ([2]; concentration (uM) -1 [sic]): 63.6617% and 56.9124% and 60.5839% and 60.8807% and 64.5679% and 61.7683%
cyclase activity (%) [2, 8]: 97.3105% and 99.8737% and 91.8341% and 99.076% and 99.9562% and 83.5123%
cyclase activity (%) [2, 9]: 102.738% and 99.4561% and 103.778% and 98.5001% and 102.473% and 98.7264%
cyclase activity (%) [2, 10]: 99.2726% and 96.965% and 102.643% and 103.079% and 106.167% and 104.578%
cyclase activity (%) [2, 11]: 100%
cyclase activity (%) [2, 12]: 2.892% and 2.778% and 4.319% and 3.785% and 3.6574% and 3.195%
cyclase activity (%) ([2]; concentration (uM) printed 1): 0%
cyclase activity (%) [2, 13]: 87.3934% and 85.1243% and 83.28% and 86.7752% and 79.7419% and 79.6259%
cyclase activity ([2]; concentration (uM) 0): 4537 and 5556.7 and 5828.8 and 5224.3 and 5509.4 and 5355.1
cyclase activity [2, 7]: 10764.2 and 10900.3 and 11166.7 and 10456.8 and 10112.3 and 9643.4
cyclase activity ([2]; concentration (uM) -1 [sic]): 20009.8 and 17605.2 and 17887.1 and 17401.4 and 16655.7 and 15598.8
cyclase activity [2, 8]: 29576 and 29650 and 26385.2 and 27343.3 and 24976.9 and 20497.1
cyclase activity [2, 9]: 31119 and 29532.9 and 29633.3 and 27193.4 and 25568.8 and 23924.4
cyclase activity [2, 10]: 30133.8 and 28834.5 and 29324.4 and 28385.2 and 26437.3 and 25242.7
cyclase activity [2, 11]: 30340.6 and 29685.4 and 28605.8 and 27583.8 and 24987.2 and 24211.3
cyclase activity [2, 12]: 2733.4 and 2427.8 and 2586.5 and 2539.8 and 2333.2 and 2403.9
cyclase activity ([2]; concentration (uM) printed 1): 1911.1 and 1649 and 1412.1 and 1554.7 and 1473.2 and 1684.2
cyclase activity [2, 13]: 26756.6 and 25514.8 and 24059 and 24141.5 and 20223.7 and 19621.6
capacitation-induced pY pattern ([3]; diluted 25 fold): restored
capacitation-induced pY pattern ([3]; swim out sperm mixed with equal volume capacitation media): blocked
normalized pY ([3]; Fig. S1f, 1:1 capacitating media): 1.44 and 0.9739 and 0.9492 and 1.269 and 0.7377 and 0.8308 and 0.9909 and 0.9583
normalized pY ([3]; Fig. S1f, 1:5 capacitating media): 1.231 and 0.8896 and 0.8967 and 1.293 and 1.015 and 0.7938 and 1.073 and 0.7598
normalized pY ([3]; Fig. S1f, 1:10 capacitating media): 1.238 and 0.8061 and 0.8834 and 1.18 and 1.244 and 0.7753 and 1.106 and 0.8286
normalized pY ([3]; Fig. S1d, 1:1 capacitating media): 1.323 and 2.451 and 1.717 and 1.956
normalized pY ([3]; Fig. S1d, 1:5 capacitating media): 1.566 and 2.38 and 1.568 and 1.6103
normalized pY ([3]; Fig. S1d, 1:10 capacitating media): 1.95 and 2.076 and 2.342 and 1.601
normalized pY ([3]; Fig. S1d, 1:25 capacitating media): 1.653 and 2.642 and 2.388
normalized pY ([3]; Fig. S1d, 1:50 capacitating media): 1.946 and 2.557 and 2.122 and 1.827
normalized pY ([3]; Fig. S1d, 1:100 capacitating media): 1.953 and 2.689 and 1.737 and 1.751
Acrosome reacted (%), Prog ([4]; 10 μM progesterone): 8% and 18.1667% and 7.5% and 9% and 9.5% and 17.6667% and 10%
Acrosome reacted (%), Prog + db-cAMP/IBMX ([4]; 10 μM progesterone, 5 mM db-cAMP/500 μM IBMX): 23% and 28.6636% and 15.5% and 15% and 16% and 30.6613% and 17.1667%
Acrosome reacted (%), basal + db-cAMP/IBMX ([4]; 5 mM db-cAMP/500 μM IBMX): 8.5% and 15.8333% and 7.5% and 6.5% and 7% and 21.8333% and 11.3333%
Acrosome reacted (%), basal ([4]; 180 min capacitating media): 6% and 15.1667% and 8% and 7% and 7.5% and 16.3548% and 6.667%
bicarbonate-induced cAMP response, sperm directly isolated ([5]; 50 mg/kg i.p.): prevented bicarbonate-induced increase in cAMP
bicarbonate-induced cAMP response, sperm measured directly ([5]; 50 mg/kg oral, 1 hour, cauda sperm): no bicarbonate-induced increase in cAMP
normalized cAMP, diluted ([5]; Fig. 3a replicates, 50 mg/kg oral gavage, 100-fold dilution into inhibitor-free media, capacitating relative to non-capacitated, 50 mg/kg): 2.085 and 1.745 and 2.432 and 2.093 and 1.3062 and 3.591 and 2.931 and 3.583
normalized cAMP, non-diluted ([5]; Fig. 3a replicates, 50 mg/kg oral gavage, capacitating relative to non-capacitated sperm of same mouse, 12 minutes, 50 mg/kg): 1.449 and 1.743 and 0.3 and 0.7791 and 0.9239 and 0.4534 and 0.1485 and 0.05415
normalize cAMP, diluted ([5]; Fig. 3c replicates, 50 mg/kg i.p., 100-fold dilution into inhibitor-free media, capacitating relative to non-capacitated, 50 mg/kg): 1.94 and 1.936 and 3.937 and 2.155 and 1.983 and 3.104 and 1.124 and 4 and 3.176 and 2.922 and 1.239
normalize cAMP, non-diluted ([5]; Fig. 3c replicates, 50 mg/kg i.p., capacitating relative to non-capacitated sperm of same mouse, 12 minutes, 50 mg/kg): 0.2801 and 0.5834 and 0.6474 and 0.2247 and 1.279 and 0.9423 and 1.0897 and 0.542 and 0.3506 and 1.1072 and 1.1267
Acrosome reacted (%), basal + db-cAMP/IBMX ([6]; 5 mM db-cAMP/500 μM IBMX): 27.72% and 28.24% and 29.05% and 27.83% and 24.06%
Acrosome reacted (%), ZP ([6]; 50 heat-solubilized zona pellucidae): 22.4% and 26.2% and 28.2% and 15.6% and 20%
Acrosome reacted (%), basal ([6]; 90 min capacitating media): 20.3% and 33.8% and 26.7% and 16.5% and 28%
Acrosome reacted (%), ZP + db-cAMP/IBMX ([6]; zona pellucidae, 5 mM db-cAMP/500 μM IBMX): 32% and 38.6% and 36.8% and 38% and 41.8%
